These results are taken from patent publication US9682141B2, “Combination of kinase inhibitors and uses thereof” (INTELLIKINE LLC, priority 2011, dated 2017).

What is called IC50 is the concentration that gives 50% inhibition.

What all share (format): biochemical
In one experiment the target is PI3K β (Homo sapiens (Human), UniProt P42338). Description: PI 3-Kinase (human) HTRF assay, p110β/p85α. (In general: Time-resolved FRET reads energy transfer from a long-lived donor to a nearby acceptor.)
In another experiment the target is PI3K α (Homo sapiens (Human), UniProt P42336). The experiment can be described thus: PI 3-Kinase (human) HTRF assay, p110α/p85α.
The next experiment addresses PI3K δ (Homo sapiens (Human), UniProt O00329). Description: PI 3-Kinase (human) HTRF assay, p110δ/p85α.
For another experiment, the target named is mTORC (Homo sapiens (Human), UniProt P42345). Description: mTOR inhibition assay (radiometric or LanthaScreen TR-FRET).
Sequence of mTORC (P42345 1360-2549): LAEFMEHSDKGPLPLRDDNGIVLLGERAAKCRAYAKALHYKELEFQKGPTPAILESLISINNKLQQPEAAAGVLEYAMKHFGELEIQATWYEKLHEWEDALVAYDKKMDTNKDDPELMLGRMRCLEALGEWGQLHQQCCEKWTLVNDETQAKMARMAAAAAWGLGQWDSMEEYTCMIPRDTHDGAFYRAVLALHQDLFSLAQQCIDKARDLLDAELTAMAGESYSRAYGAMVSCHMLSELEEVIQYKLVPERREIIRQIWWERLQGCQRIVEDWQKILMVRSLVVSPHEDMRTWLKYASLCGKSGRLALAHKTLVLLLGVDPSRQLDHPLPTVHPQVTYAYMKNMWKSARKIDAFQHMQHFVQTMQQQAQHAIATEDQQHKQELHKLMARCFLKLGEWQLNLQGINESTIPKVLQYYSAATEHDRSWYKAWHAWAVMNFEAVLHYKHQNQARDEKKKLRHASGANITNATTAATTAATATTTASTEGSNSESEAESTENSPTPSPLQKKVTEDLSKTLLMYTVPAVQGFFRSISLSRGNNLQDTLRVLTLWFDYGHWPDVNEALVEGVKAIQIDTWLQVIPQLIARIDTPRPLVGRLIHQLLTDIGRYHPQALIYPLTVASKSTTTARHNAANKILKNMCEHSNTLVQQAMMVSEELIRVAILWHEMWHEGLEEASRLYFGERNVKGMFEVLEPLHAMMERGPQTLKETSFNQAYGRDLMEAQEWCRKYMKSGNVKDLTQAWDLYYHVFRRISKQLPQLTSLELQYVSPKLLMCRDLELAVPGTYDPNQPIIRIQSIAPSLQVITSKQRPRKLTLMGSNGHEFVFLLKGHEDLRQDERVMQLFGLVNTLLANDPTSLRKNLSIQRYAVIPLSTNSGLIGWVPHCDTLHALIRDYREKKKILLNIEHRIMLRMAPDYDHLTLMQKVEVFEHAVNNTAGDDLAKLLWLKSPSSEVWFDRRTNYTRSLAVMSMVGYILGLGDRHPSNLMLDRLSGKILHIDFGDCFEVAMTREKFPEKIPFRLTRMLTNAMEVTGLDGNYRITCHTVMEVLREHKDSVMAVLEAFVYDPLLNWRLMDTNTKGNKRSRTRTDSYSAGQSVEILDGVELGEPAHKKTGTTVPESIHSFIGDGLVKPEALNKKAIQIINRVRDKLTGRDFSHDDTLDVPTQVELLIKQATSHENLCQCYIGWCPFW
The next experiment deals with PI3K γ (Homo sapiens (Human), UniProt P48736). Description: PI 3-Kinase (human) HTRF assay, p110γ. Particulars: read-out: PI3K γ IC50.
Sequence of PI3K γ (P48736 whole entry): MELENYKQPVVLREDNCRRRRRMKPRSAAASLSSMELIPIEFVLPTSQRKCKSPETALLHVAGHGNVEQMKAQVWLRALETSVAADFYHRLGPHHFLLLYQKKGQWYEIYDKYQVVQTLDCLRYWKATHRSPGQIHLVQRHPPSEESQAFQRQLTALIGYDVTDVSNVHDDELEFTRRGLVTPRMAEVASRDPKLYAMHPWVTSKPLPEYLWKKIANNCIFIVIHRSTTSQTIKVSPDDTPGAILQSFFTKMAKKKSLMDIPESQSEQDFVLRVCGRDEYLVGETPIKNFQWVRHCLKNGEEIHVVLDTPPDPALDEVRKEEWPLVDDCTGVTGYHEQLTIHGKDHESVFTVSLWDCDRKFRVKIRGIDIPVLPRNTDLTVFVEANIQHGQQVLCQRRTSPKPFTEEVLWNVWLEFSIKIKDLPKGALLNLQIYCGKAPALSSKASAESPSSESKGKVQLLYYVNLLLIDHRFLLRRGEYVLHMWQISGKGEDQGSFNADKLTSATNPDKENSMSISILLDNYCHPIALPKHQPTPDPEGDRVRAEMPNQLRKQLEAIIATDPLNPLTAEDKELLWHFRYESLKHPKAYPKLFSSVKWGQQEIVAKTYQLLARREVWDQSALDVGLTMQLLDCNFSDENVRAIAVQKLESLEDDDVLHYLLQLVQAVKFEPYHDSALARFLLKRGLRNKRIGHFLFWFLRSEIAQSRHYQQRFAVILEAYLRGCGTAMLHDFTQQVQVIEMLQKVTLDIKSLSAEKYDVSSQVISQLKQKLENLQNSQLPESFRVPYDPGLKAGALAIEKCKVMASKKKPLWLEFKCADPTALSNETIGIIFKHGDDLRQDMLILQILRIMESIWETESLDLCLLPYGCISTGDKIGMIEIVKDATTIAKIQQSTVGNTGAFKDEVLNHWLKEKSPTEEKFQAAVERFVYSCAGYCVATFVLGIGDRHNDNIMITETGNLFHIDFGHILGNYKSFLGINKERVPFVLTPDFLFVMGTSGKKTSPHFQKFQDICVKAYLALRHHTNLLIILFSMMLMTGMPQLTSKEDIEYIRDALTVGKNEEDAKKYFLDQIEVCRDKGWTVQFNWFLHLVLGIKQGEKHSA

The structures appear in SMILES notation. Bounds are passed on as bounds.

Sequence of PI3K δ (O00329 whole entry): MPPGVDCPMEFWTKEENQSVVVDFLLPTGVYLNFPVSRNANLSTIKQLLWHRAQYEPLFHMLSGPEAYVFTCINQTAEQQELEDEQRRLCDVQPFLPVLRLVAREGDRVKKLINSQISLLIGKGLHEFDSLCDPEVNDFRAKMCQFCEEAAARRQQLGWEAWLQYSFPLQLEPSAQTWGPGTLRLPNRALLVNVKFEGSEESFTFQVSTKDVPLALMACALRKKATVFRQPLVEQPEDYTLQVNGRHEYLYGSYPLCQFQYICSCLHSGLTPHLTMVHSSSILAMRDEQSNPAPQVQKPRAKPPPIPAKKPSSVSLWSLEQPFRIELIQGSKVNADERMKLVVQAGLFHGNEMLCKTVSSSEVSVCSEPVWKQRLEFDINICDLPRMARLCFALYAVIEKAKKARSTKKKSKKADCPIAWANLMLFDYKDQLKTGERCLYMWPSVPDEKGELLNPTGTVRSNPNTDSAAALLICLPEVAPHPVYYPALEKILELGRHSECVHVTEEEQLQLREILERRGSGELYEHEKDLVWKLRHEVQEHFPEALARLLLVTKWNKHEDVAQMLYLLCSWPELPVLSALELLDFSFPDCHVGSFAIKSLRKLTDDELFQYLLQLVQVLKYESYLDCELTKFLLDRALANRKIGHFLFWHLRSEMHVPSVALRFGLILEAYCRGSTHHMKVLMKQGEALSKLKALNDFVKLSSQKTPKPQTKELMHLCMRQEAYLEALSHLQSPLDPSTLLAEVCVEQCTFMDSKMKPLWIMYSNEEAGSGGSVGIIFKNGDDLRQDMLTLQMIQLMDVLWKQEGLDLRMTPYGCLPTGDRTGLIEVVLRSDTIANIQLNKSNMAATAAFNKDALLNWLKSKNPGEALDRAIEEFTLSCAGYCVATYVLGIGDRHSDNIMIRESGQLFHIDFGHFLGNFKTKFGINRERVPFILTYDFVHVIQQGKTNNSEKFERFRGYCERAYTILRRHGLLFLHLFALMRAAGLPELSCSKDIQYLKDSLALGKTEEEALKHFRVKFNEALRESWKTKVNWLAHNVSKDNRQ
Sequence of PI3K δ (P27986 whole entry partner): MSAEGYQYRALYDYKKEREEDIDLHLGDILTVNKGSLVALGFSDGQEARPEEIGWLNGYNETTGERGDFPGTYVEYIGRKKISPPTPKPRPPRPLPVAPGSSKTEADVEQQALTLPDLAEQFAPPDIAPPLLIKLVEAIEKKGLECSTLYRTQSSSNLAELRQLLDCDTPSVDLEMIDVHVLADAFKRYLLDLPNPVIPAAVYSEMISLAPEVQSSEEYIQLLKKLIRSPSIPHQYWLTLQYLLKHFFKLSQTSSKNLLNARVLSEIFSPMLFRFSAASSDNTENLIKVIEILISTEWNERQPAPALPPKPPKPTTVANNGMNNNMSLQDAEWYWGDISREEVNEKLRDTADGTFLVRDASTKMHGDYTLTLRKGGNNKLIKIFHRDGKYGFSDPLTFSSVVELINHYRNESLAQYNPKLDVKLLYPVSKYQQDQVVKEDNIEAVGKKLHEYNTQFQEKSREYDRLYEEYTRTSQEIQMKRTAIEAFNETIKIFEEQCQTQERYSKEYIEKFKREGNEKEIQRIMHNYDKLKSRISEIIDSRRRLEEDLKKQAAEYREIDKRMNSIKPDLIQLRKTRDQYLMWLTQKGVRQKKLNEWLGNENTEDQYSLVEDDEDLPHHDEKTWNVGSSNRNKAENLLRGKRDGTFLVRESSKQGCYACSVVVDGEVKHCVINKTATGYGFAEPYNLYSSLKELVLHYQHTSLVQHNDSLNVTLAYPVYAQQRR

For the compound `CN1CCN(C(=O)C2CN(c3cnc4ccc(-c5ccc6oc(N)nc6c5)cc4n3)C2)CC1` [drawing 360], the IC50 was under 1000 nM on PI3K β; under 100 nM against PI3K α; under 1000 nM on PI3K δ; under 10000 nM against mTORC; under 10000 nM on PI3K γ.
Consider `Cc1nc2ccc(-c3ccc4oc(N)nc4c3)nn2c1-c1ccncc1`, for which the IC50 at PI3K β was under 1000 nM; on PI3K α, under 100 nM; against PI3K δ, over 10000 nM; at mTORC, under 1000 nM; at PI3K γ it was under 100 nM.
As to `CC(C)(N)C(=O)N1CCN(c2cnc3ccc(-c4ccc5oc(N)nc5c4)nc3n2)CC1`, the IC50 against PI3K β was under 10000 nM; against PI3K α, under 100 nM; on PI3K δ, under 10000 nM; against mTORC it was over 10000 nM; at PI3K γ, under 10000 nM.
In the case of `CCOC(=O)N1CCN(c2cnc3ccc(-c4ccc5oc(N)nc5c4)cc3n2)CC1`, the concentration for half-maximal inhibition (IC50) against PI3K β is under 10000 nM; against PI3K α, under 100 nM; against PI3K δ, under 10000 nM; on mTORC, under 10000 nM; at PI3K γ it was under 10000 nM.
In the case of `Nc1nc2cc(-c3ccc4ncc(N5CCNC(=O)C5)nc4c3)ccc2o1`, the half-maximal inhibitory concentration (IC50) was under 1000 nM against PI3K β; under 100 nM at PI3K α; over 10000 nM on PI3K δ; over 10000 nM against mTORC; under 1000 nM on PI3K γ.
For `Nc1nc2cc(-c3ccc4ncc(C(=O)N5CCOCC5)n4c3)ccc2o1`, the IC50 against PI3K β was under 10000 nM; against PI3K α, under 100 nM; against PI3K δ it was under 10000 nM; on mTORC it was under 10000 nM; on PI3K γ, under 10000 nM.
Consider `Nc1nc2cc(-c3ccc4ncc(N5CC(N6CCOCC6)C5)cc4n3)ccc2o1`, for which the concentration for half-maximal inhibition (IC50) was under 10000 nM against PI3K β; under 100 nM against PI3K α; under 10000 nM at PI3K δ; over 10000 nM at mTORC; under 1000 nM at PI3K γ.
Regarding `Cc1nccn1C1CN(c2cnc3ccc(-c4ccc5oc(N)nc5c4)nc3n2)C1`, the IC50 was under 10000 nM at PI3K β; under 100 nM at PI3K α; under 10000 nM against PI3K δ; over 10000 nM at mTORC; under 10000 nM at PI3K γ.
`Nc1nc2cc(-c3ccn4ncc(-c5ccncc5)c4n3)ccc2o1`: the half-inhibitory concentration (IC50) against PI3K β, on PI3K α, against PI3K δ, against mTORC and at PI3K γ was under 100 nM each time.
As for `Nc1nc2cc(-c3ccc4ncc(N5CC(N6CCOCC6)C5)nc4n3)ccc2o1`, the concentration for half-maximal inhibition (IC50) at PI3K β is over 10000 nM; against PI3K α, under 100 nM; on PI3K δ, under 10000 nM; at mTORC, under 10000 nM; at PI3K γ, under 10000 nM.
In the case of `Cc1nccn1C1CN(c2cnc3ccc(-c4ccc5oc(N)nc5c4)nc3c2)C1`, the IC50 against PI3K β was under 10000 nM; against PI3K α it was under 100 nM; against PI3K δ, under 1000 nM; at mTORC, over 10000 nM; at PI3K γ, under 100 nM.
For the compound `CS(=O)(=O)N1CCN(Cc2cc3nc(-c4ccc5oc(N)nc5c4)nc(N4CCOCC4)c3s2)CC1`, the half-inhibitory concentration (IC50) is under 1000 nM against PI3K β; under 100 nM at PI3K α; under 1000 nM at PI3K δ; under 1000 nM against mTORC; under 100 nM on PI3K γ.
In the case of `Cn1c(=O)n(-c2ccc(C(C)(C)C#N)cc2)c2c3cc(-c4ccc5oc(N)nc5c4)ccc3ncc21` [Compound 7], the IC50 against PI3K β, at PI3K α, at PI3K δ, against mTORC and at PI3K γ was under 100 nM throughout.
With `Nc1nc2cc(-c3ccc4ncc(=O)[nH]c4c3)ccc2o1`, the IC50 against PI3K β is under 1000 nM; against PI3K α it was under 100 nM; at PI3K δ it was over 10000 nM; against mTORC it was under 1000 nM; at PI3K γ, under 100 nM.
Take `CC(=O)Nc1nc2ccc(-c3ccc4nccc(-c5ccncc5)c4c3)cc2s1` [Compound 2]: the 50% inhibitory concentration (IC50) against PI3K β was over 10000 nM; against PI3K α, under 1000 nM; at PI3K δ it was over 10000 nM; against mTORC, over 10000 nM; on PI3K γ it was under 1000 nM.
Regarding `CC(=O)N1CCC(Nc2ncnc3ccc(-c4ccc5oc(N)nc5c4)cc23)CC1`, the half-maximal inhibitory concentration (IC50) is under 10000 nM against PI3K β; under 100 nM against PI3K α; under 1000 nM on PI3K δ; under 1000 nM against mTORC; under 100 nM at PI3K γ.
Consider `Nc1nc2cccc(-c3ccc4nccc(-c5ccncc5)c4c3)c2o1` [Compound 15], for which the half-maximal inhibitory concentration (IC50) against PI3K β was under 100 nM; at PI3K α, under 100 nM; on PI3K δ it was under 1000 nM; at mTORC, under 100 nM; on PI3K γ, under 1000 nM.
Regarding `C[C@H]1CN(c2cnc3ccc(-c4ccc5oc(N)nc5c4)nc3c2)CCN1`, the 50% inhibitory concentration (IC50) on PI3K β is under 100 nM; against PI3K α, under 100 nM; against PI3K δ, under 10000 nM; against mTORC, over 10000 nM; on PI3K γ, under 1000 nM.
On to `Nc1nc2cc(-c3ccc4ncc(N5C6CCC5COC6)nc4n3)ccc2o1`, for which the half-inhibitory concentration (IC50) at PI3K β is over 10000 nM; at PI3K α it was under 100 nM; at PI3K δ it was over 10000 nM; against mTORC, over 10000 nM; at PI3K γ it was under 100 nM.
Consider `CN1CC(C(=O)N2CCN(c3cnc4ccc(-c5ccc6oc(N)nc6c5)cc4n3)CC2)C1`, for which the IC50 against PI3K β is under 1000 nM; against PI3K α, under 100 nM; against PI3K δ, under 1000 nM; against mTORC, over 10000 nM; at PI3K γ, under 1000 nM.
Turning to `N#Cc1cnc2ccc(-c3ccc4oc(N)nc4c3)cc2c1`, the IC50 against PI3K β was over 10000 nM; at PI3K α, under 1000 nM; at PI3K δ, over 10000 nM; against mTORC it was under 10000 nM; at PI3K γ, under 1000 nM.
For `Nc1nc2cc(-c3ccc4ncc(N5CCC(N6CCOCC6)CC5)nc4c3)ccc2o1`, the half-inhibitory concentration (IC50) was under 1000 nM against PI3K β; under 100 nM against PI3K α; under 1000 nM against PI3K δ; over 10000 nM against mTORC; under 1000 nM at PI3K γ.
`CC(C)N1CCN(c2cnc3ccc(-c4ccc5oc(N)nc5c4)nc3c2)CC1`: the IC50 on PI3K β was under 1000 nM; at PI3K α, under 100 nM; against PI3K δ, under 1000 nM; against mTORC, over 10000 nM; at PI3K γ, under 1000 nM.
Turning to `CN1CCN(C2CN(c3cnc4ccc(-c5ccc6oc(N)nc6c5)nc4n3)C2)CC1`, the concentration for half-maximal inhibition (IC50) is under 10000 nM against PI3K β; under 100 nM against PI3K α; under 1000 nM against PI3K δ; over 10000 nM on mTORC; over 10000 nM at PI3K γ.
Turning to `CC(=O)N1CCC(N(C)c2ncnc3ccc(-c4ccc5oc(N)nc5c4)cc23)CC1`, the IC50 at PI3K β was under 1000 nM; against PI3K α it was under 100 nM; at PI3K δ, under 1000 nM; against mTORC, over 10000 nM; on PI3K γ, under 1000 nM.
For the compound `CC1(C)CN(C2CN(c3cnc4ccc(-c5ccc6oc(N)nc6c5)nc4n3)C2)CCN1`, the half-maximal inhibitory concentration (IC50) against PI3K β was under 10000 nM; at PI3K α, under 100 nM; against PI3K δ, under 1000 nM; on mTORC it was over 10000 nM; on PI3K γ it was under 10000 nM.
Turning to `C[C@H]1CN(C2CN(c3cnc4ccc(-c5ccc6oc(N)nc6c5)nc4c3)C2)CCN1C`, the IC50 against PI3K β was under 10000 nM; against PI3K α, under 100 nM; against PI3K δ it was under 1000 nM; on mTORC it was over 10000 nM; at PI3K γ it was under 10000 nM.
